Laboratory results reported in patent US20110257161A1 (priority 2008, published 2011).
pIC50: −log10 of the molar value. Where a name gives a salt, the structure may show the parent alone.

Target: α7-subtype of nicotinic receptors (Rattus norvegicus, UniProt Q05941)
Experiment: biochemical
Assay type: binding

Sequence of α7-subtype of nicotinic receptors (Q05941 23-502): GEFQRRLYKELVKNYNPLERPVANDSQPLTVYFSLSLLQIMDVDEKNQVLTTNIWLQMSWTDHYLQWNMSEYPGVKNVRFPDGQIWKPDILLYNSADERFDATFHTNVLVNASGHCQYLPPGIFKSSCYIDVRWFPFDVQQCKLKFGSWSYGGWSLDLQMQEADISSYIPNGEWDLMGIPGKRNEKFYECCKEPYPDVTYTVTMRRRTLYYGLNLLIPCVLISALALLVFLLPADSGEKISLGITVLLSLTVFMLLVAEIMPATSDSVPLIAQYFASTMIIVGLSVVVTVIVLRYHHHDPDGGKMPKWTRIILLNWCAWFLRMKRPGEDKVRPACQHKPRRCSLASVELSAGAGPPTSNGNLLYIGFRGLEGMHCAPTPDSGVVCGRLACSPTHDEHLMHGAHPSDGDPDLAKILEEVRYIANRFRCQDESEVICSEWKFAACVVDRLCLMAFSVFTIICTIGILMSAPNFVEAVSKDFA

Structure (SMILES) | pIC50
O=c1c2ccccc2ncn1-c1ccc(N2CCN3CCC2CC3)cc1 [Compound E1, 3-[4-(1,4-Diaza-bicyclo[3.2.2]non-4-yl)-phenyl]-3H-quinazolin-4-one fumaric acid salt] | 6.89
O=c1c2ccccc2nnn1-c1ccc(N2CCN3CCC2CC3)cc1 [Compound D1, 3-[4-(1,4-Diaza-bicyclo[3.2.2]non-4-yl)-phenyl]-3H-benzo[d][1,2,3]triazin-4-one fumaric acid salt] | 7.66
